Measured values taken from US8470844B2, “Imidazoacridinone derivative compounds and methods for their use” (Technion Research & Development Foundation Limited, priority 2008, dated 2013).

What was measured:
[1] = target: T1, FLT3 receptor tyrosine kinase (Homo sapiens, UniProt P36888); conditions: preclinical, from cited literature; cited from earlier work
T1 sequence (P36888 27-993): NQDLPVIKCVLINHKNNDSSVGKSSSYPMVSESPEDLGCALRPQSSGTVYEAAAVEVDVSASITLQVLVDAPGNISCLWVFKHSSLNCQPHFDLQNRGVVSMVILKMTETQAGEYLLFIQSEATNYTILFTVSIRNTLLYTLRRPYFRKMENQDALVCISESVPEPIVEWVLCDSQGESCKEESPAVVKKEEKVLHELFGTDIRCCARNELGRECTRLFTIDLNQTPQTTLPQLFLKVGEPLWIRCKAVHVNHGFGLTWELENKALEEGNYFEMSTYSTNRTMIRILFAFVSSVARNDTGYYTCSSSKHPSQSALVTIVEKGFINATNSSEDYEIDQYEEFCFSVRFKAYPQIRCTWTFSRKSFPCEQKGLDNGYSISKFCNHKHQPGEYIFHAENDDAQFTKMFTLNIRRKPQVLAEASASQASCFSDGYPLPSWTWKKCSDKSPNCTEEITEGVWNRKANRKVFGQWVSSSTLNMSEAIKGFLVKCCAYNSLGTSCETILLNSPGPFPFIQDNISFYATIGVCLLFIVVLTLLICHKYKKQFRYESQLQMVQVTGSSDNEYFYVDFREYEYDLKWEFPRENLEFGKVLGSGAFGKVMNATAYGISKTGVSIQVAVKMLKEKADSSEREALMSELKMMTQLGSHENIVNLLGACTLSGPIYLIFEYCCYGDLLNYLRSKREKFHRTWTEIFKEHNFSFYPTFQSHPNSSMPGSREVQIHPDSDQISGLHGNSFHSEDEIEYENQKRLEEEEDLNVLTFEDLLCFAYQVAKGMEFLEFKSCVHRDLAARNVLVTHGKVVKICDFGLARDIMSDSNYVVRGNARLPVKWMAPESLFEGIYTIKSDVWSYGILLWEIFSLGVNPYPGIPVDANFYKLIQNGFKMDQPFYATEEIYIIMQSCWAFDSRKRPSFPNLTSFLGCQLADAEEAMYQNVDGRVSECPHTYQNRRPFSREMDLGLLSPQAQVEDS

A549 cells = experiment: MTT cytotoxicity assay, parental A549 cells; assay type: cell-based, Human; conditions: 96 hours exposure, mean of at least three experiments
Description: Tissue culture: Human non-small cell lung cancer A549 cells and T-cell leukemia CCRF-CEM cells were grown under monolayer conditions or up to a maximal density of 10^6 cells/ml (for CCRF-CEM cells) in RPMI-1640 medium (GIBCO) supplemented with 10% fetal calf serum, 2 mM glutamine, 100 μg/ml penicillin and 100 μg/ml streptomycin (Biological Industries, Beth-Haemek, Israel) in a humid atmosphere of 5% CO2. Drug resistant A549/K1.5 cells with ABCG2 overexpression were maintained under a continuous drug selection with 1.5 μM C-1305. Bram, E. E., et al., (2007) Biochem Pharmacol 74(1), 41-53.
Cytotoxicity and growth inhibition assays: The cytotoxic activity of the various IA antitumor agents was determined using the MTT assay. Poindessous, V., et al., (2003) Clin Cancer Res 9(7), 2817-2825.
Exponentially growing cells were seeded at 5×10^3 cells/well in 24-well plates (2 ml medium/well). Following an overnight incubation, cells were exposed to different drug concentrations for 96 hours. Cellular viability was determined by adding the tetrazolium salt MTT for 4 h at 37° C., followed by solubilization of the intracellular precipitated formazan in 1 ml DMSO and absorbance was determined by a microplate reader (ASYS Hitech GmbH, Austria). Drug concentrations required to inhibit cell growth by 50% (IC50) compared with untreated controls were determined from the curves of survival versus drug concentrations using the SlideWrite software (Advanced Graphics Software, Inc., Encinitas, Calif.). Resistance folds (RF) were calculated by dividing the IC50 value of the resistant cells by that of the parental cell line. Values presented are means of at least three independent experiments, each performed in duplicates.

In the case of CCN(CC)CCNc1ccc2ncn3c4ccc(O)cc4c(=O)c1c23 [C-1311], the “FLT3 receptor tyrosine kinase inhibition (in words)” value [1] is given as “potent and selective FLT3 receptor tyrosine kinase inhibitor” and the IC50 (A549 cells) is given as 0.27 ± 0.012 µM.
